Data taken from patent US11078202B2, “β-lactamase inhibitor and use thereof” (priority 2018, dated 2021).
Structures can show the parent of a compound that is named as a salt.

Columns and labels:
Assay type in all cases: cell-based
[1] = tested on: Klebsiella pneumoniae XNWB 0005; test: MIC assay of test compounds combined with imipenem (4 μg/mL); conditions: imipenem 4 μg/mL fixed
Method in brief: (§1)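 Strains grown on TSA, colonies suspended to OD600 0.1-0.15, diluted 300-fold in CAMHB; compound dilutions combined with fixed ceftazidime or imipenem at concentrations given in assay names. Incubated 16-20 h at 35±2 °C; MIC read per CLSI guidelines, with growth and sterility controls.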

[2] = tested on: Klebsiella pneumoniae XNWB 0004; test: as above; conditions: imipenem 4 μg/mL fixed
Method in brief: as §1

[3] = tested on: Klebsiella pneumoniae XNWB 0006; test: as above; conditions: imipenem 4 μg/mL fixed
Method in brief: as §1

[4] = tested on: Klebsiella pneumoniae XNWB 0001; test: as above; conditions: imipenem 4 μg/mL fixed
Method in brief: as §1

[5] = tested on: Klebsiella pneumoniae XNWB 0002; test: as above; conditions: imipenem 4 μg/mL fixed
Method in brief: as §1

[6] = tested on: Pseudomonas aeruginosa XNWB 0008; test: as above; conditions: imipenem 4 μg/mL fixed
Method in brief: as §1

[7] = tested on: Klebsiella pneumoniae XNWB 0003; test: as above; conditions: imipenem 4 μg/mL fixed
Method in brief: as §1

[8] = tested on: Acinetobacter baumannii XNWB 0007; test: as above; conditions: imipenem 4 μg/mL fixed
Method in brief: as §1

[9] = tested on: Klebsiella pneumoniae XNWB 0005; test: MIC assay of test compounds combined with ceftazidime (8 μg/mL); conditions: ceftazidime 8 μg/mL fixed
Method in brief: as §1

[10] = tested on: Klebsiella pneumoniae XNWB 0004; test: as above; conditions: ceftazidime 8 μg/mL fixed
Method in brief: as §1

[11] = tested on: Klebsiella pneumoniae XNWB 0006; test: as above; conditions: ceftazidime 8 μg/mL fixed
Method in brief: as §1

[12] = tested on: Klebsiella pneumoniae XNWB 0001; test: as above; conditions: ceftazidime 8 μg/mL fixed
Method in brief: as §1

[13] = tested on: Klebsiella pneumoniae XNWB 0002; test: as above; conditions: ceftazidime 8 μg/mL fixed
Method in brief: as §1

[14] = tested on: Pseudomonas aeruginosa XNWB 0008; test: as above; conditions: ceftazidime 8 μg/mL fixed
Method in brief: as §1

[15] = tested on: Klebsiella pneumoniae XNWB 0003; test: as above; conditions: ceftazidime 8 μg/mL fixed
Method in brief: as §1

[16] = tested on: Acinetobacter baumannii XNWB 0007; test: as above; conditions: ceftazidime 8 μg/mL fixed
Method in brief: as §1

## N[C@H]1C[C@H](c2nnc([C@@H]3CC4(CC4)[C@@H]4CN3C(=O)N4OS(=O)(=O)O)o2)C1 [Example 16]
[1]
  The minimum concentration of test compounds combined with imipenem (4 μg/mL) for bacteriostasis: A (A: <8 μg/mL)
[2]
  The minimum concentration of test compounds combined with imipenem (4 μg/mL) for bacteriostasis: A (A: <8 μg/mL)
[3]
  The minimum concentration of test compounds combined with imipenem (4 μg/mL) for bacteriostasis: A (A: <8 μg/mL)
[4]
  The minimum concentration of test compounds combined with imipenem (4 μg/mL) for bacteriostasis: A (A: <8 μg/mL)
[5]
  The minimum concentration of test compounds combined with imipenem (4 μg/mL) for bacteriostasis: A (A: <8 μg/mL)
[6]
  The minimum concentration of test compounds combined with imipenem (4 μg/mL) for bacteriostasis: A (A: <8 μg/mL)
[7]
  The minimum concentration of test compounds combined with imipenem (4 μg/mL) for bacteriostasis: A (A: <8 μg/mL)
[8]
  The minimum concentration of test compounds combined with imipenem (4 μg/mL) for bacteriostasis: B (B: 8-16 μg/mL)
[9]
  The minimum concentration of test compounds combined with ceftazidime (8 μg/mL) for bacteriostasis: A (A: <8 μg/mL)
[10]
  The minimum concentration of test compounds combined with ceftazidime (8 μg/mL) for bacteriostasis: B (B: 8-16 μg/mL)
[11]
  The minimum concentration of test compounds combined with ceftazidime (8 μg/mL) for bacteriostasis: A (A: <8 μg/mL)
[12]
  The minimum concentration of test compounds combined with ceftazidime (8 μg/mL) for bacteriostasis: A (A: <8 μg/mL)
[13]
  The minimum concentration of test compounds combined with ceftazidime (8 μg/mL) for bacteriostasis: A (A: <8 μg/mL)
[14]
  The minimum concentration of test compounds combined with ceftazidime (8 μg/mL) for bacteriostasis: B (B: 8-16 μg/mL)
[15]
  The minimum concentration of test compounds combined with ceftazidime (8 μg/mL) for bacteriostasis: A (A: <8 μg/mL)
[16]
  The minimum concentration of test compounds combined with ceftazidime (8 μg/mL) for bacteriostasis: C (C: 16-128 μg/mL)

## O=C1N2C[C@H](N1OS(=O)(=O)O)C1(CC1)C[C@H]2c1cc(CNC2CNC2)on1 [Example 48, (1R,4S)-4-(5-((azetidin-3-ylamino)methyl)isoxazol-3-yl)-6-oxo-5,7-diazaspiro[bicycle [3.2.1]octane-2,1′-cyclopropan]-7-yl sulfate]
[1]
  The minimum concentration of test compounds combined with imipenem (4 μg/mL) for bacteriostasis: A (A: <8 μg/mL)
[2]
  The minimum concentration of test compounds combined with imipenem (4 μg/mL) for bacteriostasis: A (A: <8 μg/mL)
[3]
  The minimum concentration of test compounds combined with imipenem (4 μg/mL) for bacteriostasis: A (A: <8 μg/mL)
[4]
  The minimum concentration of test compounds combined with imipenem (4 μg/mL) for bacteriostasis: A (A: <8 μg/mL)
[5]
  The minimum concentration of test compounds combined with imipenem (4 μg/mL) for bacteriostasis: A (A: <8 μg/mL)
[6]
  The minimum concentration of test compounds combined with imipenem (4 μg/mL) for bacteriostasis: A (A: <8 μg/mL)
[7]
  The minimum concentration of test compounds combined with imipenem (4 μg/mL) for bacteriostasis: A (A: <8 μg/mL)
[8]
  The minimum concentration of test compounds combined with imipenem (4 μg/mL) for bacteriostasis: C (C: 16-128 μg/mL)
[9]
  The minimum concentration of test compounds combined with ceftazidime (8 μg/mL) for bacteriostasis: A (A: <8 μg/mL)
[10]
  The minimum concentration of test compounds combined with ceftazidime (8 μg/mL) for bacteriostasis: B (B: 8-16 μg/mL)
[11]
  The minimum concentration of test compounds combined with ceftazidime (8 μg/mL) for bacteriostasis: A (A: <8 μg/mL)
[12]
  The minimum concentration of test compounds combined with ceftazidime (8 μg/mL) for bacteriostasis: A (A: <8 μg/mL)
[13]
  The minimum concentration of test compounds combined with ceftazidime (8 μg/mL) for bacteriostasis: A (A: <8 μg/mL)
[14]
  The minimum concentration of test compounds combined with ceftazidime (8 μg/mL) for bacteriostasis: B (B: 8-16 μg/mL)
[15]
  The minimum concentration of test compounds combined with ceftazidime (8 μg/mL) for bacteriostasis: A (A: <8 μg/mL)
[16]
  The minimum concentration of test compounds combined with ceftazidime (8 μg/mL) for bacteriostasis: C (C: 16-128 μg/mL)

## N[C@H]1C[C@H](Cc2nnc([C@@H]3CC4(CC4)[C@@H]4CN3C(=O)N4OS(=O)(=O)O)o2)C1 [Example 19, (1R,4S)-4-(5-(((1R,3R)-3-aminocyclobutyl)methyl)-1,3,4-oxadiazol-2-yl)-6-oxo-5,7-diazaspiro[bicyclo[3.2.1]octane-2,1′-cyclopropan]-7-yl sulfate]
[1]
  The minimum concentration of test compounds combined with imipenem (4 μg/mL) for bacteriostasis: A (A: <8 μg/mL)
[2]
  The minimum concentration of test compounds combined with imipenem (4 μg/mL) for bacteriostasis: A (A: <8 μg/mL)
[3]
  The minimum concentration of test compounds combined with imipenem (4 μg/mL) for bacteriostasis: A (A: <8 μg/mL)
[4]
  The minimum concentration of test compounds combined with imipenem (4 μg/mL) for bacteriostasis: A (A: <8 μg/mL)
[5]
  The minimum concentration of test compounds combined with imipenem (4 μg/mL) for bacteriostasis: A (A: <8 μg/mL)
[6]
  The minimum concentration of test compounds combined with imipenem (4 μg/mL) for bacteriostasis: B (B: 8-16 μg/mL)
[7]
  The minimum concentration of test compounds combined with imipenem (4 μg/mL) for bacteriostasis: A (A: <8 μg/mL)
[8]
  The minimum concentration of test compounds combined with imipenem (4 μg/mL) for bacteriostasis: B (B: 8-16 μg/mL)
[9]
  The minimum concentration of test compounds combined with ceftazidime (8 μg/mL) for bacteriostasis: A (A: <8 μg/mL)
[10]
  The minimum concentration of test compounds combined with ceftazidime (8 μg/mL) for bacteriostasis: A (A: <8 μg/mL)
[11]
  The minimum concentration of test compounds combined with ceftazidime (8 μg/mL) for bacteriostasis: A (A: <8 μg/mL)
[12]
  The minimum concentration of test compounds combined with ceftazidime (8 μg/mL) for bacteriostasis: A (A: <8 μg/mL)
[13]
  The minimum concentration of test compounds combined with ceftazidime (8 μg/mL) for bacteriostasis: A (A: <8 μg/mL)
[14]
  The minimum concentration of test compounds combined with ceftazidime (8 μg/mL) for bacteriostasis: B (B: 8-16 μg/mL)
[15]
  The minimum concentration of test compounds combined with ceftazidime (8 μg/mL) for bacteriostasis: A (A: <8 μg/mL)
[16]
  The minimum concentration of test compounds combined with ceftazidime (8 μg/mL) for bacteriostasis: C (C: 16-128 μg/mL)

## N[C@H]1C[C@H](Cc2nnc([C@@H]3CC4(CC4)[C@@H]4CN3C(=O)N4OS(=O)(=O)O)o2)C1 [Example 20, (1R,4S)-4-(5-(((1S,3S)-3-aminocyclobutyl)methyl)-1,3,4-oxadiazol-2-yl)-6-oxo-5,7-diazaspiro[bicyclo[3.2.1]octane-2,1′-cyclopropan]-7-yl sulfate]
[1]
  The minimum concentration of test compounds combined with imipenem (4 μg/mL) for bacteriostasis: A (A: <8 μg/mL)
[2]
  The minimum concentration of test compounds combined with imipenem (4 μg/mL) for bacteriostasis: A (A: <8 μg/mL)
[3]
  The minimum concentration of test compounds combined with imipenem (4 μg/mL) for bacteriostasis: A (A: <8 μg/mL)
[4]
  The minimum concentration of test compounds combined with imipenem (4 μg/mL) for bacteriostasis: A (A: <8 μg/mL)
[5]
  The minimum concentration of test compounds combined with imipenem (4 μg/mL) for bacteriostasis: A (A: <8 μg/mL)
[6]
  The minimum concentration of test compounds combined with imipenem (4 μg/mL) for bacteriostasis: A (A: <8 μg/mL)
[7]
  The minimum concentration of test compounds combined with imipenem (4 μg/mL) for bacteriostasis: A (A: <8 μg/mL)
[8]
  The minimum concentration of test compounds combined with imipenem (4 μg/mL) for bacteriostasis: B (B: 8-16 μg/mL)
[9]
  The minimum concentration of test compounds combined with ceftazidime (8 μg/mL) for bacteriostasis: A (A: <8 μg/mL)
[10]
  The minimum concentration of test compounds combined with ceftazidime (8 μg/mL) for bacteriostasis: A (A: <8 μg/mL)
[11]
  The minimum concentration of test compounds combined with ceftazidime (8 μg/mL) for bacteriostasis: A (A: <8 μg/mL)
[12]
  The minimum concentration of test compounds combined with ceftazidime (8 μg/mL) for bacteriostasis: A (A: <8 μg/mL)
[13]
  The minimum concentration of test compounds combined with ceftazidime (8 μg/mL) for bacteriostasis: A (A: <8 μg/mL)
[14]
  The minimum concentration of test compounds combined with ceftazidime (8 μg/mL) for bacteriostasis: B (B: 8-16 μg/mL)
[15]
  The minimum concentration of test compounds combined with ceftazidime (8 μg/mL) for bacteriostasis: A (A: <8 μg/mL)
[16]
  The minimum concentration of test compounds combined with ceftazidime (8 μg/mL) for bacteriostasis: C (C: 16-128 μg/mL)
